This note sets out measurements from ChEMBL document CHEMBL5543151, “Rational Design of a Novel Class of Human ClpP Agonists through a Ring-Opening Strategy with Enhanced Antileukemia Activity” (J Med Chem, 2024).

The target in the assay is ATP-dependent Clp protease proteolytic subunit, mitochondrial (Homo sapiens, UniProt Q16740). The following applies: filed as agonist, dose 10.0 µM, time 2.0 hrs.
Sequence of ATP-dependent Clp protease proteolytic subunit, mitochondrial (Q16740 whole entry): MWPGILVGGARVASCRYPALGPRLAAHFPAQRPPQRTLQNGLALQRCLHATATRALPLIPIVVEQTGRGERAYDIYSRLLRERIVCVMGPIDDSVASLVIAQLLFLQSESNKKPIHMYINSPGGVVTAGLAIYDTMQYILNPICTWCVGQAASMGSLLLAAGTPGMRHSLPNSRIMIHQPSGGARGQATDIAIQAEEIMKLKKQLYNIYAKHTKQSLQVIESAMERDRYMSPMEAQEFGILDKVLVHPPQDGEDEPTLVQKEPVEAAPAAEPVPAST

In the case of `N#Cc1cccc(CN2CCc3[nH]c(NCc4ccc(F)cc4)nc(=O)c3C2)c1`, the ΔTm was determined as 18.3 °C.

A word on the ΔTm: it is the shift of the melting midpoint relative to a reference.
